This is an account of results in ChEMBL document CHEMBL2346651, “Structure-activity relationship study of tachykinin peptides for the development of novel neurokinin-3 receptor selective agonists” (Bioorg Med Chem, 2013).

For experiment [1], the target named is T1, Substance-K receptor (Homo sapiens) (UniProt P21452).
T1 sequence (whole entry): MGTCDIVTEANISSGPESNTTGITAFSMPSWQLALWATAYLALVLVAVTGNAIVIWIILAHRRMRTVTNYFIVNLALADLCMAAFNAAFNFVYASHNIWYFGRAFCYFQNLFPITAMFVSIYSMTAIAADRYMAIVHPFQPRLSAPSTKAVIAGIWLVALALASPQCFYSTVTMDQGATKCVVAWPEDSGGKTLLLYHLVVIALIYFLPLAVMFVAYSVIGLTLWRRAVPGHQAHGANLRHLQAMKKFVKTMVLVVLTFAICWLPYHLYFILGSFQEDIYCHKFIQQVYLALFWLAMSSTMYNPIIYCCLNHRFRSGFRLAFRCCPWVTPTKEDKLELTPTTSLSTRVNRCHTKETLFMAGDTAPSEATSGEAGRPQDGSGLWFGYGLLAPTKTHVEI
The experiment in a line: Displacement of [125I]-NKA from NK2R (unknown origin) transfected in CHO cells at 10 uM by gamma counting analysis. It counts as cell-based. On the technique in general: Loss of bound radioactivity is the signal in a displacement assay; it reports binding, not function.

In experiment [2] the target is T2, Neuromedin-K receptor (Homo sapiens, UniProt P29371).
T2 sequence (P29371 whole entry): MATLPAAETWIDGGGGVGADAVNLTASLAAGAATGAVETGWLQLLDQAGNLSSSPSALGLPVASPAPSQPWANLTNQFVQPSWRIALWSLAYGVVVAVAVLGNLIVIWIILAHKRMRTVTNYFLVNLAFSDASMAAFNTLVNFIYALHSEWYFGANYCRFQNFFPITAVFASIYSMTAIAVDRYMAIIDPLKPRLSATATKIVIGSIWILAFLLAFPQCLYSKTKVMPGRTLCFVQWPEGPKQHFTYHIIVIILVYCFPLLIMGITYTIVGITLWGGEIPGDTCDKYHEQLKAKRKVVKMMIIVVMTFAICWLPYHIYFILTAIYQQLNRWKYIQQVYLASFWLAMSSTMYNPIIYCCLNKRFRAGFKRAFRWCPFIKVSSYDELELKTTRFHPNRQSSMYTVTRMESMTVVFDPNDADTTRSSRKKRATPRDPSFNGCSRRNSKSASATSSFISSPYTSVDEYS
The experiment in a line: Agonist activity at NK3R (unknown origin) transfected in CHO cells assessed as calcium influx […]. It counts as functional, cell-based.

For experiment [3], the target named is T2, Neuromedin-K receptor. The experiment in a line: Displacement of ([125I]-His3, MePhe7)-NKB from NK3R (unknown origin) transfected in CHO cells by gamma counting analysis. It counts as cell-based.
Experiment [4] deals with Substance-P receptor (Homo sapiens) (UniProt P25103). The experiment in a line: Displacement of [125I]-BH-SP from NK1R (unknown origin) transfected in CHO cells at 10 uM by gamma counting analysis. It is filed as cell-based.
Sequence of Substance-P receptor (Homo sapiens) (P25103 whole entry): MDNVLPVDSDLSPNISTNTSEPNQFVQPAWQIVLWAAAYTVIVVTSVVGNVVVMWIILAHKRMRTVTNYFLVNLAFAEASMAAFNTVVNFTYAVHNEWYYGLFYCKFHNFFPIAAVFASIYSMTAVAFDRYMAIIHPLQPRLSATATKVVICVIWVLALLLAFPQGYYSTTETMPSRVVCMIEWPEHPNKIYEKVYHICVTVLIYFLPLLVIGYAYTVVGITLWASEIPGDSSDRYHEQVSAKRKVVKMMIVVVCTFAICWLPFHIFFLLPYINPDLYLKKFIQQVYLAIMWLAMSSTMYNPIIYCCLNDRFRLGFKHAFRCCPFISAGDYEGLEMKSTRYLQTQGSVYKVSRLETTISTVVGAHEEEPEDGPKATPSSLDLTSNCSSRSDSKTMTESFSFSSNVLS

Residues, ends and D or L forms follow the SMILES beside them.

Usually inhibition stands for the percentage by which the read-out fell short of the control. Lower therefore signals little suppression. Usually EC50 stands for the concentration needed to bring the measured effect to its halfway point. As usually defined, the IC50 is the point on the concentration scale where inhibition reaches its midpoint. Consider `CSCC[C@H](NC(=O)[C@H](CC(C)C)NC(=O)CNC(=O)[C@H](Cc1ccccc1)N(C)C(=O)[C@H](Cc1ccccc1)NC(=O)[C@H](C)NC(=O)[C@H](CC(=O)O)NC(=O)[C@H](CCCCN)NC(=O)[C@H](CO)NC(=O)[C@@H]1CCCN1C(=O)[C@@H]1CCC(=O)N1)C(N)=O` (HELM PEPTIDE1{[Glp].P.S.K.D.A.F.[meF].G.L.M.[am]}$$$$V2.0), for which the figures for the inhibition in experiment [1] and in experiment [4] were 26% and 48%, respectively. Besides, at Neuromedin-K receptor [2], the half-maximal effective concentration (EC50) stood at 0.071 nM. The molecule further yielded an IC50 at Neuromedin-K receptor [3] of 7 nM.

Regarding H-DVPKSDDFVGLM-NH2, the figures for the inhibition in experiment [1] and in experiment [4] were 74% and 53%, respectively. Moreover, the EC50 on Neuromedin-K receptor [2] was determined as 0.47 nM. On Neuromedin-K receptor [3], this molecule returned an IC50 of 89 nM.

As for `CSCC[C@H](NC(=O)[C@H](CC(C)C)NC(=O)CNC(=O)[C@H](Cc1ccccc1)N(C)C(=O)[C@H](Cc1ccccc1)NC(=O)[C@@H]1CCCN1C(=O)[C@H](CC(=O)O)NC(=O)[C@H](Cc1cnc[nH]1)NC(=O)[C@H](CCSC)NC(=O)[C@@H](N)CC(=O)O)C(N)=O` (HELM PEPTIDE1{D.M.H.D.P.F.[meF].G.L.M.[am]}$$$$V2.0), the values for the inhibition in experiment [1] and in experiment [4] were 38% and under 10%, respectively. On Neuromedin-K receptor [2], the concentration for a half-maximal effect (EC50) came to 0.041 nM. The IC50 on Neuromedin-K receptor [3] stood at 45 nM.

As to `CSCC[C@H](NC(=O)[C@H](CC(C)C)NC(=O)CNC(=O)[C@H](Cc1ccccc1)N(C)C(=O)[C@H](Cc1ccccc1)NC(=O)[C@H](CC(=O)O)NC(=O)[C@H](CC(=O)O)NC(=O)[C@H](CCCCN)NC(=O)[C@H](CO)NC(=O)[C@@H]1CCCN1C(=O)[C@@H]1CCC(=O)N1)C(N)=O` (HELM PEPTIDE1{[Glp].P.S.K.D.D.F.[meF].G.L.M.[am]}$$$$V2.0), the inhibition in experiment [1] and in experiment [4] was under 10% each time. Also, at Neuromedin-K receptor [2], the EC50 is 0.078 nM. For the same molecule, on Neuromedin-K receptor [3], the 50% inhibitory concentration (IC50) is 5.5 nM.

Regarding `CSCC[C@H](NC(=O)[C@H](CC(C)C)NC(=O)CNC(=O)[C@H](Cc1ccccc1)N(C)C(=O)[C@H](Cc1ccccc1)NC(=O)[C@H](CCC(=O)O)NC(=O)[C@H](CC(=O)O)NC(=O)[C@H](Cc1cnc[nH]1)NC(=O)[C@H](CCSC)NC(=O)[C@@H](N)CC(=O)O)C(N)=O` (HELM PEPTIDE1{D.M.H.D.E.F.[meF].G.L.M.[am]}$$$$V2.0), the inhibition in experiment [1] and in experiment [4] was under 10% each time. For the same molecule, at Neuromedin-K receptor [2], the concentration giving a half-maximal response (EC50) is 0.024 nM. For the same molecule, the IC50 on Neuromedin-K receptor [3] was found to be 7.5 nM.

Take `CSCC[C@H](NC(=O)[C@H](CC(C)C)NC(=O)CNC(=O)[C@H](Cc1ccccc1)N(C)C(=O)[C@H](Cc1ccccc1)NC(=O)[C@H](CC(=O)O)NC(=O)[C@H](CC(=O)O)NC(=O)CNC(=O)[C@@H](NC(=O)[C@@H](N)CC(=O)O)[C@@H](C)O)C(N)=O` (HELM PEPTIDE1{D.T.G.D.D.F.[meF].G.L.M.[am]}$$$$V2.0): the inhibition in experiment [1] and in experiment [4] was under 10% in each case. Besides, the EC50 at Neuromedin-K receptor [2] amounted to 0.11 nM. On Neuromedin-K receptor [3], this molecule displayed an IC50 of 81 nM.

`CSCC[C@H](NC(=O)[C@H](CC(C)C)NC(=O)CNC(=O)[C@H](Cc1ccccc1)N(C)C(=O)[C@H](Cc1ccccc1)NC(=O)[C@H](CCCCN)NC(=O)[C@H](CC(=O)O)NC(=O)[C@H](Cc1cnc[nH]1)NC(=O)[C@H](CCSC)NC(=O)[C@@H](N)CC(=O)O)C(N)=O` (HELM PEPTIDE1{D.M.H.D.K.F.[meF].G.L.M.[am]}$$$$V2.0): the inhibition came to 35% in experiment [1] and 40% in experiment [4]. Also, the concentration for a half-maximal effect (EC50) on Neuromedin-K receptor [2] came to 0.026 nM. The concentration for half-maximal inhibition (IC50) at Neuromedin-K receptor [3] is 11 nM.

For `CSCC[C@H](NC(=O)[C@H](CC(C)C)NC(=O)CNC(=O)[C@H](Cc1ccccc1)N(C)C(=O)[C@H](Cc1ccccc1)NC(=O)[C@H](CCC(N)=O)NC(=O)[C@H](CC(=O)O)NC(=O)[C@H](Cc1cnc[nH]1)NC(=O)[C@H](CCSC)NC(=O)[C@@H](N)CC(=O)O)C(N)=O` (HELM PEPTIDE1{D.M.H.D.Q.F.[meF].G.L.M.[am]}$$$$V2.0), the inhibition in experiment [1] is 21%; in experiment [4] it was 24%. In addition, the EC50 at Neuromedin-K receptor [2] was 0.043 nM. Further, the half-maximal inhibitory concentration (IC50) at Neuromedin-K receptor [3] came to 4.6 nM.

`CC[C@H](C)[C@H](NC(=O)[C@H](Cc1ccccc1)NC(=O)[C@H](CC(=O)O)NC(=O)[C@H](CC(=O)O)NC(=O)[C@H](CCCCN)NC(=O)[C@H](CO)NC(=O)[C@@H]1CCCN1C(=O)[C@@H]1CCC(=O)N1)C(=O)NCC(=O)N[C@@H](CC(C)C)C(=O)N[C@@H](CCSC)C(N)=O` (HELM PEPTIDE1{[Glp].P.S.K.D.D.F.I.G.L.M.[am]}$$$$V2.0): the results for the inhibition in experiment [1] and in experiment [4] were 56% and 91%, respectively. Moreover, the half-maximal effective concentration (EC50) at Neuromedin-K receptor [2] is 0.0054 nM. For the same molecule, the IC50 on Neuromedin-K receptor [3] stood at 35 nM.
